# Assay results published in patent US20090253669A1, “Substituted Sulfonamide Compounds” (GRUENENTHAL GmbH, priority 2008, published 2009).
# Like-named read-outs stand apart in the source and are kept apart here.
# Key:
# [1] = target: T1, human B1R receptor (hB1R) (Homo sapiens, UniProt P46663); experiment: FLIPR Ca2+ assay on hB1R-transfected CHO K1 cells, antagonistic action; assay type: cell-based
# T1 construct: host or cells: CHO K1 cells
# T1 sequence (P46663 1-353): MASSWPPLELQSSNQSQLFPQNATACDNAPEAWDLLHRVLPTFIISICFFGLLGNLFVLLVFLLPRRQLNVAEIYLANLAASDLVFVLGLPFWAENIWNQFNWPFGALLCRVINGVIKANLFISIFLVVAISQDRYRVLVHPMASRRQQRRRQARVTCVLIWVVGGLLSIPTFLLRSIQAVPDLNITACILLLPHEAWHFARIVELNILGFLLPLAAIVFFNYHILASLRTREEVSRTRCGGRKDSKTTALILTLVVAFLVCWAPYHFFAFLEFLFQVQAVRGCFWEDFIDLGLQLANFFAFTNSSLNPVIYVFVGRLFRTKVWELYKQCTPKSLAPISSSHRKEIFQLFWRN
# [2] = target: T2, B1R receptor of the rat (rB1R) (Rattus norvegicus, UniProt P97583); experiment: FLIPR Ca2+ assay on rB1R-transfected CHO K1 cells, antagonistic action; assay type: cell-based
# T2 construct: host or cells: CHO K1 cells
# T2 sequence (P97583 1-337): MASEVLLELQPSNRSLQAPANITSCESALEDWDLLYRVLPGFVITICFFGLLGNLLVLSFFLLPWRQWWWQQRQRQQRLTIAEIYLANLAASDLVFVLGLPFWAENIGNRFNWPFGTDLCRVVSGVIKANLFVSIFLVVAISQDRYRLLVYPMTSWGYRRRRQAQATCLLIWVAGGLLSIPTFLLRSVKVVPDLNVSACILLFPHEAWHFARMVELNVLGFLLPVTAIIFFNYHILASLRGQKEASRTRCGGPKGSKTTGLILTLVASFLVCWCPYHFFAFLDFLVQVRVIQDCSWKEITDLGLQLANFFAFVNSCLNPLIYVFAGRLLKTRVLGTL
# [3] = CHO-K1, 10 μM test substance, agonist Lys-Des-Arg9-bradykinin 0.5 nM, % of maximum achievable inhibition, read-out: hB1R [10 μM] % inhibition
# [4] = CHO-K1, 10 μM test substance, agonist Des-Arg9-bradykinin 100 nM, % of maximum achievable inhibition, read-out: rB1R [10 μM] % inhibition
SMILES,"inhibition at 10 µM [1, 3] [%]","inhibition at 10 µM [2, 4] [%]","inhibition at 10 µM ([1]; CHO-K1, read-out: hB1R [10 μM] % inhibition) [%]","inhibition at 10 µM ([2]; CHO-K1, read-out: rB1R [10 μM] % inhibition) [%]"
"COc1cc(C)c(S(=O)(=O)N(C)CCOCC(=O)NC2CCC(c3ccccc3)(N3CCCC3)CC2)c(C)c1 (stereo not drawn) [Compound 150, 2-(2-(4-methoxy-N,2,6-trimethylphenylsulfonamido)ethoxy)-N-(4-phenyl-4-(pyrrolidin-1-yl)cyclohexyl)acetamide]",102,104,,
"CN1CCN(C2(c3cccc(F)c3)CCN(C(=O)COCC3CCc4ccccc4N3S(=O)(=O)c3ccc(Cl)c(Cl)c3)CC2)CC1 (stereo not drawn) [Compound 103, 2-((1-(3,4-dichlorophenylsulfonyl)-1,2,3,4-tetrahydroquinolin-2-yl)methoxy)-1-(4-(3-fluorophenyl)-4-(4-methylpiperazin-1-yl)piperidin-1-yl)ethanone]",73,82,,
"CNC1(c2ccncc2)CCN(C(=O)COCCN(C)S(=O)(=O)c2c(C)cc(OC)cc2C)CC1 [Compound 209, 4-Methoxy-N,2,6-trimethyl-N-(2-(2-(4-(methylamino)-4-(pyridin-4-yl)piperidin-1-yl)-2-oxoethoxy)ethyl)benzenesulfonamide]",,,100,99
"COc1cc(C)c(S(=O)(=O)N(C)CCOCC(=O)N(C)CC2CCC(Cc3ccccc3)(N3CCCC3)CC2)c(C)c1 (stereo not drawn) [Compound 45, N-((4-benzyl-4-(pyrrolidin-1-yl)cyclohexyl)methyl)-2-(2-(4-methoxy-N,2,6-trimethylphenylsulfonamido)ethoxy)-N-methylacetamide]",104,100,,
"CN(CC1CCC(c2ccccc2)(N2CCCC2)CC1)C(=O)CC1CCCCN1S(=O)(=O)c1cccc(C(F)(F)F)c1 (stereo not drawn) [Compound 33, N-methyl-N-((4-phenyl-4-(pyrrolidin-1-yl)cyclohexyl)methyl)-2-(1-(3-(trifluoromethyl)phenylsulfonyl)piperidin-2-yl)acetamide]",94,101,,
"COc1cc(C)c(S(=O)(=O)N2CCCCC2COCC(=O)N2CCC(CCc3ccccc3)(N(C)C)CC2)c(C)c1 (stereo not drawn) [Compound 50, 1-(4-(dimethylamino)-4-phenethylpiperidin-1-yl)-2-((1-(4-methoxy-2,6-dimethylphenylsulfonyl)piperidin-2-yl)methoxy)ethanone]",102,100,,
